Measurements from patent publication US11130769B2 (Prelude Therapeutics Incorporated, priority 2018, dated 2021).
Like-named read-outs stand apart in the source and are kept apart here.

How the values were obtained:
H929 cells = assay: Cell viability assay (H929 10 FBS); type: cell-based; conditions: Homo sapiens, NCI-H929, 24 hours, read-out: H929_10FBS IC50
Outline: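 H929 cells, 4000/well, in RPMI 1640 with 10% FBS, sodium pyruvate, HEPES and glucose were exposed to compound 24 h at 37 °C. Viability read as luminescence after 30-60 min at RT with CellTiter-Glo or ATPlite 1 Step.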

MCL-1 = MCL-1 (Homo sapiens (Human), UniProt Q07820); assay: Cell free Mcl-1:Bim affinity assay (fluorescence polarization competition); type: binding; conditions: 15 nM MCL-1, 5 nM FITC-Bim, 1 hour at room temperature, read-out: BIM_Ki
MCL-1, sequence (Q07820 whole entry): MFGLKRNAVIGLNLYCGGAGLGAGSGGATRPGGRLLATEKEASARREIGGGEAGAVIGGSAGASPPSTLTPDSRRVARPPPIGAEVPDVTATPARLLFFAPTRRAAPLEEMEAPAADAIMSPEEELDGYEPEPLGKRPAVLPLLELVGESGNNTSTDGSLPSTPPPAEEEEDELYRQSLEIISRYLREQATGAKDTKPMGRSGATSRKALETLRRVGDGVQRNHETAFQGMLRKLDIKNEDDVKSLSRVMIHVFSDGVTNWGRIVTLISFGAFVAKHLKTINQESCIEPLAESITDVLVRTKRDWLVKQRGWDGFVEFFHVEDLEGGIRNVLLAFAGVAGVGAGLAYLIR
Outline: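 Compounds competed with FITC-labelled Bim peptide (5 nM) for MCL-1 (15 nM) in HEPES/NaCl buffer with 1% DMSO, 1 h at room temperature. Fluorescence polarization (535 nm emission) gave % inhibition versus DMSO and positive controls; IC50 from 10-point curves, converted to Ki by the Nikolovska-Coleska equation.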

Row | Compound | IC50 (H929 cells) [µM] | Ki (MCL-1; class symbols) [µM] | Ki (MCL-1; numeric values) [µM]
1 | O=C(CCc1ccncc1)NS(=O)(=O)c1ccc2c(c1)N(CC1CCC1)C[C@@]1(CCCc3cc(Cl)ccc31)CO2 (racemic) [Example 20, 3-Pyridin-4-yl-N-[rac-(3S)-6′-chloro-5-(cyclobutylmethyl)spiro[2,4-dihydro-1,5-benzoxazepine-3,1′-tetralin]-7-yl]sulfonyl-propanamide] | > 1 | – | 0.0218
2 | CO[C@H]1/C=C/CNCC2(CCC2)C(=O)NS(=O)(=O)c2ccc3c(c2)N(C[C@H]2CCC21)CC1(CCCc2cc(Cl)ccc21)CO3 (stereo partly drawn) [Example 26, (3R,6R,7R,8E,23S)-6′-Chloro-7-methoxy-13,13-(1,3-propylene)-16,16-dioxo-spiro[21-oxa-16-thia-1,11,15-triazatetracyclo[15.7.2.03,6.020,25]hexacosa[8,17(26),18,20(25)]tetraene-23,1′-tetralin]-14-one] | > 1 | 0.001 to 0.1 | –
3 | CC(C)(C)OC(=O)N1CCC(CC(=O)NS(=O)(=O)c2ccc3c(c2)N(CC2CCC2)CC2(CCCc4cc(Cl)ccc42)CO3)CC1 (stereo not drawn) [Example 22, tert-Butyl 4-[2-[[6′-chloro-5-(cyclobutylmethyl)spiro[2,4-dihydro-1,5-benzoxazepine-3,1′-tetralin]-7-yl]sulfonylamino]-2-oxo-ethyl]piperidine-1-carboxylate] | > 1 | – | 0.057
4 | CN1C/C=C/[C@@H](O)[C@@H]2CC[C@H]2CN2C[C@@]3(CCCc4cc(Cl)ccc43)COc3ccc(cc32)S(=O)(=O)NC(=O)C12CCC2 [Example 138, (3R,6R,7R,8E,22S)-6′-Chloro-7-hydroxy-11-methyl-12,12-(1,3-propylene)-15,15-dioxo-spiro[20-oxa-15-thia-1,11,14-triazatetracyclo[14.7.2.03,6.019,24]pentacosa[8,16(25),17,19(24)]tetraene-22,1′-tetralin]-13-one] | < 1 | 0.001 to 0.1 | –
5 | CC1(C)OC/C=C/[C@H](OCCN2CC[C@H](F)C2)[C@@H]2CC[C@H]2CN2C[C@@]3(CCCc4cc(Cl)ccc43)COc3ccc(cc32)S(=O)(=O)NC1=O [Example 265, (3R,6R,7S,8E,22S)-6′-Chloro-7-[2-[(3S)-3-fluoropyrrolidin-1-yl]ethoxy]-12,12-dimethyl-15,15-dioxo-spiro[11,20-dioxa-15-thia-1,14-diazatetracyclo[14.7.2.03,6.019,24]pentacosa-8,16,18,24-tetraene-22,1′-tetralin]-13-one] | < 0.5 | 0.001 to 0.1 | –
6 | COC1CCN(C(=O)O[C@H]2/C=C/COC(C)(C)C(=O)NS(=O)(=O)c3ccc4c(c3)N(C[C@@H]3CC[C@H]32)C[C@@]2(CCCc3cc(Cl)ccc32)CO4)CC1 [Example 51, [(3R,6R,7S,8E,22S)-6′-Chloro-12,12-dimethyl-13,15,15-trioxo-spiro[11,20-dioxa-15-thia-1,14-diazatetracyclo[14.7.2.03,6.019,24]pentacosa-8,16,18,24-tetraene-22,1′-tetralin]-7-yl] 4-methoxypiperidine-1-carboxylate] | < 0.5 | < 0.001 | –
7 | CO[C@H]1/C=C/COC2(CC2)C(=O)NS(=O)(=O)c2ccc3c(c2)N(C[C@@H]2CC[C@H]21)C[C@@]1(CCCc2cc(Cl)ccc21)CO3 [Example 28, (3R,6R,7S,8E,22S)-6′-Chloro-7-methoxy-12,12-ethylene-15,15-dioxo-spiro[[11,20]dioxa-15-thia-1,14-diazatetracyclo[14.7.2.03,6.019,24]pentacosa[8,16(25),17,19(24)]tetraene-22,1′-tetralin]-13-one] | > 1 | < 0.001 | –
8 | CNC(=O)O[C@H]1/C=C/COC2(CC2)C(=O)NS(=O)(=O)c2ccc3c(c2)N(C[C@@H]2CC[C@H]21)C[C@@]1(CCCc2cc(Cl)ccc21)CO3 [Example 227, [(3R,6R,7S,8E,22S)-6′-Chloro-12,12-ethylene-13,15,15-trioxo-spiro[11,20-dioxa-15-thia-1,14-diazatetracyclo[14.7.2.03,6.019,24]pentacosa-8,16,18,24-tetraene-22,1′-tetralin]-7-yl] N-methylcarbamate] | < 0.5 | < 0.001 | –
9 | CN(C)C(=O)O[C@H]1/C=C/COC2(CC2)C(=O)NS(=O)(=O)c2ccc3c(c2)N(C[C@@H]2CC[C@H]21)C[C@@]1(CCCc2cc(Cl)ccc21)CO3 [Example 41, [(3R,6R,7S,8E,22S)-6′-Chloro-12,12-ethylene-13,15,15-trioxo-spiro[11,20-dioxa-15-thia-1,14-diazatetracyclo[14.7.2.03,6.019,24]pentacosa-8,16,18,24-tetraene-22,1′-tetralin]-7-yl] N,N-dimethylcarbamate] | < 0.5 | < 0.001 | –
10 | CC1(C)OC/C=C/[C@H](OC(=O)NCCN2CCCCC2)[C@@H]2CC[C@H]2CN2C[C@@]3(CCCc4cc(Cl)ccc43)COc3ccc(cc32)S(=O)(=O)NC1=O [Example 193, [(3R,6R,7S,8E,22S)-6′-Chloro-12,12-dimethyl-13,15,15-trioxo-spiro[11,20-dioxa-15-thia-1,14-diazatetracyclo[14.7.2.03,6.019,24]pentacosa-8,16,18,24-tetraene-22,1′-tetralin]-7-yl] N-[2-(1-piperidyl)ethyl]carbamate] | < 0.5 | 0.001 to 0.1 | –
11 | CC1(C)OC/C=C/[C@H](OC(=O)N2CCN(C3COC3)CC2)[C@@H]2CC[C@H]2CN2C[C@@]3(CCCc4cc(Cl)ccc43)COc3ccc(cc32)S(=O)(=O)NC1=O [Example 187, [(3R,6R,7S,8E,22S)-6′-Chloro-12,12-dimethyl-13,15,15-trioxo-spiro[11,20-dioxa-15-thia-1,14-diazatetracyclo[14.7.2.03,6.019,24]pentacosa-8,16,18,24-tetraene-22,1′-tetralin]-7-yl] 4-(oxetan-3-yl)piperazine-1-carboxylate] | < 0.5 | < 0.001 | –

The remaining lines, values ahead:

Row | IC50 (H929 cells) [µM] | Ki (MCL-1; class symbols) [µM] | Ki (MCL-1; numeric values) [µM] | Compound
12 | < 0.5 | < 0.001 | – | CC1(C)OC/C=C/[C@H](OCC(=O)N2CC(F)C2)[C@@H]2CC[C@H]2CN2C[C@@]3(CCCc4cc(Cl)ccc43)COc3ccc(cc32)S(=O)(=O)NC1=O [Example 281, (3R,6R,7S,8E,22S)-6′-Chloro-7-[2-(3-fluoroazetidin-1-yl)-2-oxo-ethoxy]-12,12-dimethyl-15,15-dioxo-spiro[11,20-dioxa-15-thia-1,14-diazatetracyclo[14.7.2.03,6.019,24]pentacosa-8,16,18,24-tetraene-22,1′-tetralin]-13-one]
13 | < 0.5 | < 0.001 | – | O=C1NS(=O)(=O)c2ccc3c(c2)N(C[C@@H]2CC[C@H]2[C@H](O)/C=C/COC12CC2)C[C@@]1(CCCc2cc(Cl)ccc21)CO3 [Example 38, (3R,6R,7R,8E,22S)-6′-Chloro-7-hydroxy-12,12-ethylene-15,15-dioxo-spiro[11,20-dioxa-15-thia-1,14-diazatetracyclo[14.7.2.03,6.019,24]pentacosa[8,16(25),17,19(24)]tetraene-22,1′-tetralin]-13-one]
14 | < 0.5 | < 0.001 | – | CCOC1CN(C(=O)O[C@H]2/C=C/CN(C)C3(CCC3)C(=O)NS(=O)(=O)c3ccc4c(c3)N(C[C@@H]3CC[C@H]32)C[C@@]2(CCCc3cc(Cl)ccc32)CO4)C1 [Example 244, [(3R,6R,7S,8E,22S)-6′-Chloro-11-methyl-12,12-(1,3-propylene)-13,15,15-trioxo-spiro[20-oxa-15-thia-1,11,14-triazatetracyclo[14.7.2.03,6.019,24]pentacosa-8,16,18,24-tetraene-22,1′-tetralin]-7-yl] 3-ethoxyazetidine-1-carboxylate]
15 | < 0.5 | < 0.001 | – | COC1CN(C(=O)O[C@H]2/C=C/CN(C)C(C)(C)C(=O)NS(=O)(=O)c3ccc4c(c3)N(C[C@@H]3CC[C@H]32)C[C@@]2(CCCc3cc(Cl)ccc32)CO4)C1 [Example 217, [(3R,6R,7S,8E,22S)-6′-Chloro-11,12,12-trimethyl-13,15,15-trioxo-spiro[20-oxa-15-thia-1,11,14-triazatetracyclo[14.7.2.03,6.019,24]pentacosa-8,16,18,24-tetraene-22,1′-tetralin]-7-yl] 3-methoxyazetidine-1-carboxylate]
16 | < 0.5 | < 0.001 | – | O=C(N[C@H]1CCOC1)O[C@H]1/C=C/COC2(CCC2)C(=O)NS(=O)(=O)c2ccc3c(c2)N(C[C@@H]2CC[C@H]21)C[C@@]1(CCCc2cc(Cl)ccc21)CO3 [Example 237, [(3R,6R,7S,8E,22S)-6′-Chloro-12,12-(1,3-propylene)-13,15,15-trioxo-spiro[11,20-dioxa-15-thia-1,14-diazatetracyclo[14.7.2.03,6.019,24]pentacosa-8,16(25),17,19(24)-tetraene-22,1′-tetralin]-7-yl] N-[(3S)-tetrahydrofuran-3-yl]carbamate]
17 | < 0.5 | < 0.001 | – | CC1(C)OC/C=C/[C@H](OC(=O)NCCc2cccnc2)[C@@H]2CC[C@H]2CN2C[C@@]3(CCCc4cc(Cl)ccc43)COc3ccc(cc32)S(=O)(=O)NC1=O [Example 178, [(3R,6R,7S,8E,22S)-6′-Chloro-12,12-dimethyl-13,15,15-trioxo-spiro[11,20-dioxa-15λ^6-thia-1,14-diazatetracyclo[14.7.2.0^3,6.0^19,24]pentacosa-8,16,18,24-tetraene-22,1′-tetralin]-7-yl] N-[2-(3-pyridyl)ethyl]carbamate]
18 | < 0.5 | < 0.001 | – | CCOC1CN(C(=O)O[C@H]2/C=C/COC3(CCC3)C(=O)NS(=O)(=O)c3ccc4c(c3)N(C[C@@H]3CC[C@H]32)C[C@@]2(CCCc3cc(Cl)ccc32)CO4)C1 [Example 230, [(3R,6R,7S,8E,22S)-6′-Chloro-12,12-(1,3-propylene)-13,15,15-trioxo-spiro[11,20-dioxa-15-thia-1,14-diazatetracyclo[14.7.2.03,6.019,24]pentacosa-8,16(25),17,19(24)-tetraene-22,1′-tetralin]-7-yl]-N,N-1,3-(2-ethoxy)propylene carbamate]
